Publication PMC9434784, “Synthesis and In Vitro Evaluation of a Set of 6-Deoxy-6-thio-carboranyl D-Glucoconjugates Shed Light on the Substrate Specificity of the GLUT1 Transporter” (ACS Omega, 2022)
Read-outs that look alike come from different tables or passages of the source.

Columns and labels:
GLUT1 = biological target: T1, GLUT1 (Homo sapiens, UniProt P11166); assay: GLUT1 affinity cis-inhibition assay against [14C]-D-glucose in CAL 27 cells; type: cell-based; conditions: competition with 1.8 μM [14C]-D-glucose, 5 min, room temperature, 0.1–1800 μM
T1 construct: host or cells: CAL 27 human squamous carcinoma cells
T1 sequence (P11166 1-492): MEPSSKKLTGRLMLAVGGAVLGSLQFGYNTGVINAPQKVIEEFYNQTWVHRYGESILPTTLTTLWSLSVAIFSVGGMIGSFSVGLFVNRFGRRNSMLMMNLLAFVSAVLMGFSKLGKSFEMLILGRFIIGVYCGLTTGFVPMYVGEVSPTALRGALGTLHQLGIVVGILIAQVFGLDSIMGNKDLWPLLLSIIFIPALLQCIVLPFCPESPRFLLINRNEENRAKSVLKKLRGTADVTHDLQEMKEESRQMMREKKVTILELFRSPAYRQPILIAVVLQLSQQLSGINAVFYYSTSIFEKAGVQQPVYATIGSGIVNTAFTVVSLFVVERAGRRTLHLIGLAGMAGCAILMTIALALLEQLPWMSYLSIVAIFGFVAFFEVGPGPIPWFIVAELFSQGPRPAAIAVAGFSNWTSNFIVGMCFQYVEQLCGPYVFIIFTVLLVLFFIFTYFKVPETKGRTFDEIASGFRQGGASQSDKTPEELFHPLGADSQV
Description: From the drug development perspective, it is central to understand the molecular interactions between the ligand and the transporter. For example, in a BNCT context, the selectivity and success of the treatments are directly related to the preferential uptake of boron-10 enriched delivery agents by cancer cells. In our case, the GLUT1 transporter, which is overexpressed on various cancers, is responsible for the uptake process. The clinical validity and therapeutic utility of the approach stem from the “Warburg effect”.[7],[8] Cancer cells have an impaired D-glucose metabolism while simultaneously displaying a high proliferation rate and energy demand. Together, these factors contribute to an increased D-glucose uptake in cancer cells compared to healthy cells and offer a basis for pursuing a GLUT1-targeting strategy in BNCT. Based on the available tumor imaging data obtained through the use of FDG,[38] head and neck cancers represent a promising target for our approach. Therefore, we employed the human squamous carcinoma cell line CAL 27 as a suitable model for the in vitro assessment of GLUT1-targeting delivery agents. In addition to being a relevant head and neck cancer cell line of human origin, the GLUT1-transporter has been indicated to play a key role in the aberrant growth of CAL 27 cells.[39],[40] In our previous work, we validated the GLUT1-function, quantified the GLUT1-expression, and developed a cis-inhibition assay for determining the relative affinities of GLUT1-targeting delivery agents to GLUT1 in the CAL 27 cell line.[13],[14] To allow comparison of the results of the present study to our earlier ones, we used the same protocols herein. The fully deprotected glucoconjugates 1–4 were subjected to the cis-inhibition assay, i.e., they were forced to compete for the transporter against radiolabeled [^14C]-D-glucose in order to assess their targeting capabilities from a functional point of view. A high GLUT1 affinity, i.e., a low IC50 value, is characteristic of delivery agents that are able to target the transporter in the presence of the natural substrate D-glucose in a biological milieu. […] Large differences in the IC50 values were thus noted. […] These two delivery agents display acceptable GLUT1-targeting capabilities. […] While the trend is clear, the results are surprising. The question that arises is as follows: which underlying factors contribute to these notable deviations uncovered through the experimental cis-inhibition assay?
The GLUT1 affinity assay was performed according to our previously developed protocol.[13],[14] […] Liquid scintillation counter (MicroBeta^2 counter, PerkinElmer, Waltham, MA, USA) was used to assess the radioactivity, and the IC50 values were determined by nonlinear regression analysis.

CAL 27 cell line = assay: Cellular uptake (boron delivery capacity) by ICP-MS boron quantification; type: cell-based, human; conditions: for behaviour at GLUT1 inferred from affinity and uptake profiles: CAL 27; for Vmax (boron uptake, Michaelis–Menten) / Km: 10–400 μM; for Km: read-out: Km (boron uptake, Michaelis–Menten)
Description: The uptake studies were performed according to our recently reported protocol.[13],[14] […] This, however, is not a concern, as the cell-killing effect caused by the thermal neutron beam in actual BNCT treatments has a destructive radius reminiscent to the diameter of a single cell (5–9 μm in biological tissue).[46] In the uptake studies, the concentration range 10–400 μM was screened. The incubation times 5, 30, and 120 min were chosen due the optimal performance of [^14C]-D-glucose under these conditions. Since inductively-coupled plasma mass spectrometry (ICP-MS) is somewhat insensitive when it comes to quantification of the boron content, thoroughly washed cells from four wells were combined and digested before being subjected to the analysis. […] However, we noticed that the Km values were consistently higher with the S-linked carboranyl species compared to the O-linked carboranylmethyl species.[14] The higher Km value may imply that there are additional transport mechanisms involved in the uptake of the S-series delivery agents. More work is needed to ascertain these factors. Regardless, the different Km values may likewise indicate that a greater concentration, which may no longer be clinically relevant, would be required for the S-series species to reach Vmax.
The cells were first pre-incubated. The substrates were then added in different concentration (10–400 μM in 250 μL of HBSS) and incubation was continued for 5, 30, and 120 min at room temperature. Ice-cold buffer was used to quench the reaction at the set time points. Washing and lysis was carried out as mentioned above. A combined sample was prepared in an Eppendorf tube by addition of cell lysate from four wells. The combined sample was centrifuged at +4 °C. From the supernatant of every sample, 800 μL was taken and digested in 1.0 mL of HNO3 (TraceMetal grade, Fisher Chemical) for 24 h. Milli-Q water (USF Elga Purelab Ultra) was added until the sample volume was 10 mL, and the boron contents were assessed in triplicates by ICP-MS. More details on the ICP method can be found in our earlier work.[13],[14] PerkinElmer Syngistix Data Analysis Software was used for data analysis and GraphPad Prism v.5.03 software (GraphPad Software, San Diego, Ca, USA) for statistical analysis.

Compound | IC50 (GLUT1) | behaviour at GLUT1 inferred from affinity and uptake profiles (CAL 27 cell line) | Vmax (boron uptake, Michaelis–Menten) (CAL 27 cell line; CAL 27, 5 min incubation) | Km (CAL 27 cell line; CAL 27, 5 min incubation) | Vmax (boron uptake, Michaelis–Menten) (CAL 27 cell line; CAL 27, 30 min incubation) | Km (CAL 27 cell line; CAL 27, 30 min incubation) | boron delivery capacity compared to the other delivery agents screened (BPA, BSH) (CAL 27 cell line; CAL 27, 10–400 μM, 5, 30 and 120 min) | Vmax (boron uptake, Michaelis–Menten) (CAL 27 cell line; CAL 27, 120 min incubation) | Km (CAL 27 cell line; CAL 27, 120 min incubation)
6-Deoxy-6-thio-(1,2-dicarba-closo-dodecaboran-1-yl)-D-glucopyranose [Compound 1] | 127 µM | seems to act as a GLUT1-antagonist | 1.34 μg B/mg protein | 1830 µM | 0.83 μg B/mg protein | 556 µM |  |  | 
6-Deoxy-6-thio-(1,2-dicarba-closo-dodecaboran-9-yl)-D-glucopyranose [Compound 3] | 982 µM |  | 0.03 μg B/mg protein | 110 µM |  |  |  |  | 
6-Deoxy-6-thio-(1,7-dicarba-closo-dodecaboran-1-yl)-D-glucopyranose [Compound 2] | 121 µM | enters the cells through the transporter at an acceptable rate | 6.60 μg B/mg protein | 1810 µM | 1.80 μg B/mg protein | 237 µM | fivefold higher delivery capacity | 2.19 μg B/mg protein | 208 µM
OC[C@H]1OC(O)[C@H](O)[C@@H](O)[C@@H]1O (stereo partly drawn) [D-glucose, reference compound] | > 1000 µM |  |  |  |  |  |  |  | 
